Results: US12533353B2, “Methods of treatment of cancer comprising CDC7 inhibitors” (CARNA BIOSCIENCES, INC., priority 2018, dated 2026)
Where two headings read alike, the source gives them in different places.

Legend:
[1] = tested on: panel of 235 cancer cell lines; assay: CellTiter-Glo luminescent cell viability assay, 72-hour incubation; format: cell-based
Description: The concentration-dependent effect of SRA141 on cell viability was determined in a panel of 235 cancer cell lines, utilizing the CellTiter-Glo™ luminescence assay (Promega) with a 72-hour drug incubation period. The 50% inhibition concentration (IC50) was determined in the cancer cell lines using Cell Titer-Glo® luminescent cell viability assay after incubation with SRA141 at different concentrations.

[2] = tested on: Colo-205 colon cancer cells; assay: Sub-G1 fraction by propidium iodide flow cytometry; format: cell-based, human; settings: 1 μM to 10 μM, 48 h incubation
Description: (§1) The differential cytotoxic activity of SRA141 in Colo-205 colon cancer cells versus normal human dermal fibroblast cells (NHDF) was assessed at drug concentrations ranging from 0.03 to 33.3 μM (48 h incubation). Following treatment, cells labelled with propidium iodide were analyzed by flow cytometry to determine the percentage of dying cells found in sub-G1 fractions as a consequence of apoptosis-mediated DNA fragmentation. […] In contrast, fewer than 10% of the normal cells were apoptotic as determined by sub-G1 fraction, consistent with published reports showing minimal cytotoxicity of non-transformed cells following Cdc7 inhibition (Montagnoli, 2004). Thus, these findings support a potential therapeutic index for SRA141 between tumor and non-transformed tissues.

[3] = tested on: normal human dermal fibroblast cells (NHDF); assay: Sub-G1 fraction by propidium iodide flow cytometry; format: cell-based; settings: 0.03 to 33.3 μM, 48 h incubation
Description: as §1

[4] = tested on: numerous cell lines; assay: Two viability assays versus other Cdc7 inhibitors; format: cell-based; settings: two different viability assays
[5] = tested on: Colo-205 tumor xenografts; assay: Rat Colo-205 colorectal xenograft efficacy; format: in vivo; settings: for tumor growth inhibition: 5 days of 7-day cycle, Day 31
Description: The efficacy of a Cdc7 inhibitor (compound SRA141) as a monotherapy was tested in a rat xenograft model of colorectal cancer (CRC) (FIG. 7). Female Rowett nude rats were inoculated sub-cutaneously with 2×10^7 COLO-205 human colorectal carcinoma cells. All rats were gamma-irradiated (4Gy) 24 hours before tumor cell injection. The COLO-205 cells were injected in 0.2 mL PBS in 1:1 Matrigel®. Female The nude rats bearing Colo-205 tumor xenografts were orally administered (i) vehicle control (0.5% CMC-Na/1% Lutrol F-68) or (ii) SRA141 150 mg/kg once a day (QD) for 5 consecutive days of a 7-day cycle for 6 weeks or (iii) SRA141 75 mg/kg twice a day (BID) for 5 consecutive days of a 7-day cycle for 6 weeks (n=7 per treatment group). Tumor growth inhibition was calculated on Day 31, the final day all vehicle control animals remained on study. Tumor volume measurements and body weight measurements were taken biweekly.

[6] = tested on: HT-29 colorectal adenocarcinoma cells; assay: Gemcitabine growth inhibition alone or with SRA141, 96 hours; format: cell-based, human; settings: SRA141 at 1.1 μM or 3.3 μM
Description: To confirm the efficacy of a Cdc7 inhibitor in combination with the replicative stress-inducing anti-neoplastic agent gemcitabine, human HT-29 colorectal adenocarcinoma cells were treated with increasing concentrations of gemcitabine (from 0.037 to 1 μM) for 96 hours.

[7] = tested on: CDK8 (STAT1, Ser727); CDK7 and 9 (RNA pol II, Ser2); LATS2 (YAP1, Ser127); MCL-1; assay: Cellular substrates of putative off-target kinases in Colo-205 cells; format: cell-based, human
Description: Colo-205 cells were treated with SRA141 (at concentrations between 0.033 and 3.3 μM) for 8 to 24 hours with subsequent assessment of the phosphorylation status of the downstream targets for Cdc7 (MCM2, Ser40/41 and Ser53), and the putative off-target kinases CDK8 (STAT1, Ser727); CDK7 and 9 (RNA pol II, Ser2); LATS2 (YAP1, Ser127) as well as the levels of MCL-1, known to be indirectly controlled by CDK9 (Gregory, 2015).

[8] = tested on: AML-blast progenitors; assay: 3D growth in methylcellulose matrix, 14 days; format: cell-based
Description: (§2) The anti-proliferative activity of SRA141 (0.3-5 μM) was also evaluated in additional 3D growth studies conducted in a methylcellulose growth matrix using normal human myeloid (n=3) and AML-blast progenitors incubated for 14 days.

[9] = tested on: normal human myeloid progenitors (normal bone marrow); assay: 3D growth in methylcellulose matrix, 14 days; format: cell-based
Description: as §2

[10] = tested on: A20 tumor xenografts; assay: A20 immunocompetent lymphoma xenograft model; format: in vivo; settings: 120 mg/kg orally
Description: Immunocompetent female BALB/c mice bearing A20 tumor xenografts were administered (i) control (PBS, intraperitoneal) or (ii) SRA141 120 mg/kg orally; n=8 animals per group). Dosing occurred on Days 0 to 4, 7 to 11, and 14 to 18. Tumor growth inhibition was calculated on Day 23, the final day of the study.

[11] = biological target: OAT3 (Homo sapiens, UniProt Q8TCC7); assay: In vitro transporter inhibition; format: in vitro ADME
Chain of OAT3 (Q8TCC7 whole entry): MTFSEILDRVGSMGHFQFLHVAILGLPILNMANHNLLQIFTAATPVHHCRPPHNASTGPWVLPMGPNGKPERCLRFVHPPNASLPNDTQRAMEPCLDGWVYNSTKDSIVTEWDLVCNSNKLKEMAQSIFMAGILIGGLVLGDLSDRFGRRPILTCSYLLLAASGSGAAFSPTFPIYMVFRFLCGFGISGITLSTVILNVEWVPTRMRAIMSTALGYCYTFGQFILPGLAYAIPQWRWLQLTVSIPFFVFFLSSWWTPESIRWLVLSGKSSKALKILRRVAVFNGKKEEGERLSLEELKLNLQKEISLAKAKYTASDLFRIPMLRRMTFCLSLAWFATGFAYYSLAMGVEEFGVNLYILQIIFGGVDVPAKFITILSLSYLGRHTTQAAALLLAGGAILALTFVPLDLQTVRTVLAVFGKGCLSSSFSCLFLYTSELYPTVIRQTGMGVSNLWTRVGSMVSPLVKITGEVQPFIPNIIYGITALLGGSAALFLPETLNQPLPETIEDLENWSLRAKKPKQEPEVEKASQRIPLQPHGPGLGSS

[12] = Absolute oral bioavailability; settings: dog, in vivo, read-out: absolute oral bioavailability (% F)
[13] = tested on: three AML cell lines (EOL-1, Molm-16 and MV-4-11) and three AML PDX models (AM5512, AM7440 and AM7577); assay: AML 3D cultures, summary over models; format: cell-based; settings: five of the six models; read-out: IC50 range
Description: The activity of SRA141 was investigated in in vitro and ex vivo three-dimensional (3D) cultures prepared from three AML cell lines (EOL-1, Molm-16 and MV-4-11) and three AML PDX models (AM5512, AM7440 and AM7577), respectively. Tumor cultures were treated with SRA141 (0.08 to 33 μM) for 5 days.

With `CCOC(=O)C1=C(NN2CCN(CC(F)(F)F)CC2)O/C(=C\c2c[nH]c3ncccc23)C1=O` [SRA141] the “activity in hematologic-derived cell lines” value ([1]; 59 hematologic cancer cell lines) was “Significant activity”, the IC50 ([1]; solid tumor cell lines of bladder, sarcoma, colon and cecum, renal, head-and-neck, melanoma, gastric lineages) was less than 3000 nM and the “percentage of dying cells in sub-G1 fraction” value [2] was no more than 62%. For the same compound, the “percentage of apoptotic cells by sub-G1 fraction” value [3] was less than 10%, the “in vitro activity versus TAK-931 and LY-3177833” value [4] was “comparable or superior in vitro activity” and the “complete tumor regressions (no measurable tumor for 3 consecutive measurements)” value ([5]; 75 mg/kg BID) was 4 of 7. The “partial regression (tumor volume <50% of initial volume for 3 consecutive measurements)” value ([5]; 75 mg/kg BID) was 1 of 7, the tumor growth inhibition ([5]; 75 mg/kg BID) was 93% and the tumor growth inhibition ([5]; 150 mg/kg QD) was 50%. For the same compound, the “effect of SRA141 addition on gemcitabine inhibition” value [6] was “substantially reduced the inhibitory effects of gemcitabine”, the “inhibition of STAT1, YAP1 and MCL-1” value ([7]; 3.3 μM) was “Minimal inhibition” and the “phosphorylation status (or protein level of MCL-1) of off-target substrates” value ([7]; up to 1 μM) was “no significant change”. The “primary AML samples responding with a Therapeutic Index [(Primary AML IC50)÷(BMNC control IC50)]” value ([8]; 9 primary AML samples) was 5 out of 9, the IC50 ([8]; AML810 censored, read-out: mean IC50, AML samples) was roughly 160 nM and the IC50 ([8]; AML-blast progenitor 180, read-out: IC50) was 337 nM. For the same compound, the IC50 ([8]; AML-blast progenitor 190, read-out: IC50) was 73 nM, the IC50 ([8]; AML-blast progenitor 200, read-out: IC50) was 119 nM and the IC50 ([8]; AML-blast progenitor 250, read-out: IC50) was 159 nM. For the same compound, the IC50 ([8]; AML-blast progenitor 260, read-out: IC50) was 140 nM, the IC50 ([8]; AML-blast progenitor 717, read-out: IC50) was 118 nM and the IC50 ([8]; AML-blast progenitor 810 (sample censored), read-out: IC50) was 831 nM. It also gave an IC50 ([8]; AML-blast progenitor 915, read-out: IC50) of 177 nM, an IC50 ([8]; AML-blast progenitor 917, read-out: IC50) of 202 nM and an IC50 ([8]; with AML 810, read-out: Mean AML-blast progenitor IC50 (with AML 810)) of 240 ± 234 nM. The IC50 ([8]; without AML 810, read-out: Mean AML-blast progenitor IC50 (without AML 810)) was 166 ± 80 nM, the IC50 ([9]; Normal bone marrow 111, read-out: IC50) was 165 nM and the IC50 ([9]; Normal bone marrow 525 (first line), read-out: IC50) was 375 nM. It also gave an IC50 ([9]; Normal bone marrow 525 (second line), read-out: IC50) of 212 nM, an IC50 ([9]; mean of 3 samples, read-out: Mean normal bone marrow IC50) of 251 ± 110 nM and an IC50 ([9]; read-out: mean IC50, normal bone marrow preparations) of 250 nM. For the same compound, the tolerability [10] was “tolerated”, the tumor growth inhibition ([10]; Days 0 to 4, 7 to 11, 14 to 18, Day 23) was 59% and the inhibition at 10 µM [11] was greater than 50%. For the same compound, the bioavailability ([12]; free base suspension, fasted, range given for mouse, rat and dog together) was 31 to 54%, the bioavailability ([12]; two proposed clinical drug product capsule presentations) was 41 to 62% and the IC50 [13] was 150 to 1600 nM.
